Columns and labels:
[1] = system: MCF-7 human breast cancer cells; assay: Cell survivability (MTS), MCF-7; conditions: varying concentrations based on amount of drug, FIG. 17
Excerpt: (§1) Metabolism in viable cells produces “reducing equivalents,” such as, NADH or NADPH. Such reducing compounds pass electrons to an intermediate electron transfer reagent that can reduce the tetrazolium product, MTS (Promega), into an aqueous, soluble formazan product, which is colored. At death, cells rapidly lose the ability to reduce tetrazolium products. The production of the colored formazan product, therefore, is proportional to the number of viable cells in culture.
(§2) The CellTiter 96® Aqueous products (Promega) are MTS assays for determining the number of viable cells in culture. […] A single reagent added directly to the assay wells at a recommended ratio of 20 μl reagent to 100 μl of culture medium was used. Cells were incubated 1-4 hours at 37° C. and then absorbance was measured at 490 nm.
(§3) Varying concentrations of CPT-11 and the camptothecin branched polymer aggregates described above were prepared.
(§4) Two cancer cell lines were maintained in suitable medium under recognized culture conditions. MCF-7 is a human breast cancer cell line and H460 is a human epithelial lung cancer cell line. Those cell lines were exposed to varying concentrations of CPT-11 and concentrations of the camptothecin aggregates based on the amount of drug. Cell survivability was assessed as described above.

[2] = system: H460 human epithelial lung cancer cells; assay: Cell survivability (MTS), H460; conditions: varying concentrations based on amount of drug, FIG. 18
Excerpt: as §1, §2, §3, §4

SMILES: CCc1c2c(nc3ccc(OC(=O)N4CCC(N5CCCCC5)CC4)cc13)-c1cc3c(c(=O)n1C2)COC(=O)[C@]3(O)CC [CPT-11, Irinotecan]
- cytotoxicity [1]: increased with increasing drug concentration
- cytotoxicity [2]: dose response curve of cytotoxicity

Source: patent US12042561B2, “Hydrophobic molecule-induced branched polymer aggregates and their use” (ANP Technologies, Inc., priority 2011, dated 2024)
